Assay results published in US20240116985A1, “STAPLED PEPTIDES AND METHODS THEREOF” (priority 2020, published 2024).
Converted amounts (≈) assume the structure as drawn. Blank lines part the entries; values can stand above or below the compound they belong to.

Test: Solubility in PBS
Assay type: physicochemical
Conditions: for solubility at 15 min: Solubility (uM)
How it was run: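 The PBS solution was ultracentrifuged and the supernatant analyzed by HPLC. Its peak area was divided by that of a 50 μM peptide DMSO reference injection and multiplied by 50 uM to give solubility.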

SMILES: CC(=O)N1CCC[C@]12CC=CCCCC1(CCCC=CCCCOC(=O)N3CC[C@@](C(=O)N[C@@H](Cc4ccsc4)C(=O)N[C@@H](Cc4csc5ccccc45)C(=O)N[C@@H](CCC(N)=O)C(N)=O)(C3)NC(=O)[C@H](CC(N)=O)NC(=O)[C@H](Cc3ccccc3)NC(=O)[C@H](C)NC(=O)[C@H](C)NC(=O)[C@H](CC(=O)O)NC(=O)[C@H](CCN)NC1=O)NC(=O)[C@H](CC(C)(C)C)NC(=O)[C@H](CC(=O)O)NC2=O (stereo partly drawn) [I-1216, Ac-PL3-Asp-Npg-B5-Dab-Asp-Ala-Ala-Phe-Asn-PyrS2-3Thi-BztA-Gln-NH2]
Solubility: 10 µM (≈ 19 µg/mL)

SMILES: CC(=O)N1CCC[C@]12CC=CCCCC1(CCCC=CCCCOC(=O)N3CC[C@@](C(=O)N[C@@H](CC4CCCC4)C(=O)N[C@@H](Cc4csc5ccccc45)C(=O)N[C@@H](CCC(N)=O)C(N)=O)(C3)NC(=O)[C@H](CC(C)C)NC(=O)[C@H](Cc3ccccc3)NC(=O)[C@H](C)NC(=O)[C@H](C)NC(=O)[C@H](CC(=O)O)NC(=O)[C@H](CC(=O)O)NC1=O)NC(=O)[C@H](CC(C)(C)C)NC(=O)[C@H](CC(=O)O)NC2=O (stereo partly drawn) [I-1353, PL3-Asp-Npg-B5-Asp-Asp-Ala-Ala-Phe-Leu-PyrS2-CypA-BztA-Gln-NH2]
solubility at 15 min: 44 µM (≈ 83.7 µg/mL)

SMILES: CC(=O)N1CCC[C@]12CC=CCCCC1(CCCC=CCCCOC(=O)N3CC[C@@](C(=O)N[C@@H](Cc4ccccc4)C(=O)N[C@@H](Cc4csc5ccccc45)C(=O)N[C@H](C(N)=O)[C@@H](C)O)(C3)NC(=O)[C@H](CC(C)C)NC(=O)[C@H](Cc3ccccc3)NC(=O)[C@H](C)NC(=O)[C@H](CCCCNC(C)C)NC(=O)[C@H]([C@@H](C)O)NC(=O)[C@H](CC(=O)O)NC1=O)NC(=O)[C@H](C)NC(=O)[C@H](CC(N)=O)NC2=O (stereo partly drawn) [I-1384, Ac-PL3-Asn-Ala-B5-Asp-Thr-iPrLys-Ala-Phe-Leu-PyrS2-Phe-BztA-Thr-NH2]
Solubility: 10 µM (≈ 19.1 µg/mL)

SMILES: CC(=O)N1CCC[C@]12CC=CCCCC1(CCCC=CCCCOC(=O)N3CC[C@@](C(=O)N[C@@H](Cc4ccccc4C(F)(F)F)C(=O)N[C@@H](Cc4csc5ccccc45)C(=O)N[C@@H](CCC(N)=O)C(N)=O)(C3)NC(=O)[C@H](CC(C)C)NC(=O)[C@H](Cc3ccccc3)NC(=O)[C@H](C)NC(=O)[C@H](C)NC(=O)[C@H](Cc3cccc(C(=O)O)c3)NC(=O)[C@H](CC(=O)O)NC1=O)NC(=O)[C@H](CC(C)(C)C)NC(=O)[C@H](CC(=O)O)NC2=O (stereo partly drawn) [I-1335, PL3-Asp-Npg-B5-Asp-3COOHF-Ala-Ala-Phe-Leu-PyrS2-2F3MeF-BztA-Gln-NH2]
solubility at 15 min: 11 µM (≈ 22.6 µg/mL)

SMILES: CC(=O)N1CCC[C@]12CC=CCCCC1(CCCC=CCCCOC(=O)N3CC[C@@](C(=O)N[C@@H](Cc4ccccc4C(F)(F)F)C(=O)N[C@@H](Cc4csc5ccccc45)C(=O)N[C@@H](CO)C(N)=O)(C3)NC(=O)[C@H](CC(C)C)NC(=O)[C@H](Cc3ccccc3)NC(=O)[C@H](C)NC(=O)[C@H](C)NC(=O)[C@H](Cc3cccc(C(=O)O)c3)NC(=O)[C@H](CC(=O)O)NC1=O)NC(=O)[C@H](CC(C)(C)C)NC(=O)[C@H](CC(=O)O)NC2=O (stereo partly drawn) [I-1336, PL3-Asp-Npg-B5-Asp-3COOHF-Ala-Ala-Phe-Leu-PyrS2-2F3MeF-BztA-Ser-NH2]
Solubility: 10 µM (≈ 20.1 µg/mL)

SMILES: CC(=O)N1CCC[C@]12CC=CCCCC1(CCCC=CCCCOC(=O)N3CC[C@@](C(=O)N[C@@H](Cc4ccccc4Cl)C(=O)N[C@@H](Cc4csc5ccccc45)C(=O)N[C@@H](CO)C(N)=O)(C3)NC(=O)[C@H](CC(C)C)NC(=O)[C@H](Cc3ccccc3)NC(=O)[C@H](C)NC(=O)[C@H](C)NC(=O)[C@H](Cc3cccc(C(=O)O)c3)NC(=O)[C@H](CC(=O)O)NC1=O)NC(=O)[C@H](CC(C)(C)C)NC(=O)[C@H](CC(=O)O)NC2=O (stereo partly drawn) [I-1333, PL3-Asp-Npg-B5-Asp-3COOHF-Ala-Ala-Phe-Leu-PyrS2-2C1F-BztA-Ser-NH2]
Solubility: 10 µM (≈ 19.8 µg/mL)

Next, values leading:

Solubility: 10 µM (≈ 18.9 µg/mL)
SMILES: CC(=O)N1CCC[C@]12CC=CCCCC1(CCCC=CCCCOC(=O)N3CC[C@@](C(=O)N[C@@H](Cc4ccccc4)C(=O)N[C@@H](Cc4cccc5ccccc45)C(=O)N[C@@H](CCC(N)=O)C(N)=O)(C3)NC(=O)[C@H](CC(C)C)NC(=O)[C@H](Cc3ccccc3)NC(=O)[C@H](C)NC(=O)[C@H](C)NC(=O)[C@H]([C@@H](C)O)NC(=O)[C@H](CC(=O)O)NC1=O)NC(=O)[C@H](CC(C)(C)C)NC(=O)[C@H](CC(N)=O)NC2=O (stereo partly drawn) [I-1290, Ac-PL3-Asn-Npg-B5-Asp-Thr-Ala-Ala-Phe-Leu-PyrS2-Phe-1NapA-Gln-NH2]

Solubility: 10 µM (≈ 19 µg/mL)
SMILES: CC(=O)N1CCC[C@]12CC=CCCCC1(CCCC=CCCCOC(=O)N3CC[C@@](C(=O)N[C@@H](Cc4ccccc4)C(=O)N[C@@H](Cc4csc5ccccc45)C(=O)N[C@@H](CCC(N)=O)C(N)=O)(C3)NC(=O)[C@H](CC(C)C)NC(=O)[C@H](Cc3ccccc3)NC(=O)[C@H](C)NC(=O)[C@H](C)NC(=O)[C@H]([C@@H](C)O)NC(=O)[C@H](CC(=O)O)NC1=O)NC(=O)[C@H](CC(C)(C)C)NC(=O)[C@H](CC(N)=O)NC2=O (single isomer, unassigned) [I-1285, Ac-PL3-Asn-Npg-B5-Asp-Thr-Ala-Ala-Phe-Leu-PyrS2-Phe-BztA-Gln-NH2]

solubility at 15 min: 39 µM (≈ 75.7 µg/mL)
SMILES: COc1ccccc1C[C@H](NC(=O)[C@]12CCN(C1)C(=O)OCCCC=CCCCC1(CCCC=CC[C@]3(CCCN3C(C)=O)C(=O)N[C@@H](CC(=O)O)C(=O)N[C@@H](CC(C)(C)C)C(=O)N1)C(=O)N[C@@H](CC(=O)O)C(=O)N[C@@H](CC(=O)O)C(=O)N[C@@H](C)C(=O)N[C@@H](C)C(=O)N[C@@H](Cc1ccccc1)C(=O)N[C@@H](CC(C)C)C(=O)N2)C(=O)N[C@@H](Cc1csc2ccccc12)C(=O)N[C@@H](CCC(N)=O)C(N)=O (stereo partly drawn) [I-1327, PL3-Asp-Npg-B5-Asp-Asp-Ala-Ala-Phe-Leu-PyrS2-2OMeF-BztA-Gln-NH2]

Solubility: 10 µM (≈ 20 µg/mL)
SMILES: CC(=O)N1CCC[C@]12CC=CCCCC1(CCCC=CCCCOC(=O)N3CC[C@@](C(=O)N[C@@H](Cc4ccccc4)C(=O)N[C@@H](Cc4csc5ccccc45)C(=O)N[C@@H](CCC(N)=O)C(N)=O)(C3)NC(=O)[C@H](CC(C)C)NC(=O)[C@H](Cc3ccccc3)NC(=O)[C@H](C)NC(=O)[C@H](CCCCNC(C)C)NC(=O)[C@H]([C@@H](C)O)NC(=O)[C@H](CC(=O)O)NC1=O)NC(=O)[C@H](CC(C)(C)C)NC(=O)[C@H](CC(N)=O)NC2=O (single isomer, unassigned) [I-1289, Ac-PL3-Asn-Npg-B5-Asp-Thr-iPrLys-Ala-Phe-Leu-PyrS2-Phe-BztA-Gln-NH2]
